# ChEMBL document CHEMBL4673257, “Azepino-indazoles as calcitonin gene-related peptide (CGRP) receptor antagonists” (Bioorg Med Chem Lett, 2021)
# Key:
# [1] = target: T1, Calcitonin gene-related peptide type 1 receptor (Homo sapiens, UniProt O60894+Q16602); experiment: Antagonist activity at human CGRP receptor
# [2] = Oral bioavailability in rat at 10 mg/kg; format: ADME, organism-based; settings: in vivo
# Callithrix jacchus [3] = experiment: Antimigraine activity in human CGRPalpha-induced migraine marmoset model assessed as reduction in facial blood flow at 5 mg/kg, sc administered 30 mins after CGRP stimulation and measured after 105 mins by laser doppler method relative to control; format: functional; design: scale not given: the % may be the effect or the level left; settings: time 135 min, 2.25 h
# [4] = Protein binding human plasma assessed as unbound fraction; format: ADME, cell-free
# [5] = target: T1, Calcitonin gene-related peptide type 1 receptor; experiment: Antagonist activity at human CGRP receptor in human SK-N-MC cells assessed as inhibition of CGRP-induced cAMP production; format: functional, cell-based
# [6] = Metabolic stability in dog liver microsomes assessed as half life; format: ADME, Canis lupus familiaris, Microsome
# [7] = Metabolic stability in human liver microsomes assessed as half life; format: ADME, Microsome
# [8] = Metabolic stability in monkey liver microsomes assessed as half life; format: ADME, Macaca mulatta, Microsome; settings: rhesus monkey
# [9] = Metabolic stability in rat liver microsomes assessed as half life; format: ADME, Microsome
# Callithrix jacchus [10] = experiment: Antimigraine activity in human CGRPalpha-induced migraine marmoset model assessed as reduction in facial blood flow at 5 mg/kg, sc administered 30 mins after CGRP stimulation and measured after 60 mins by laser doppler method relative to control; format: functional; design: scale not given: the % may be the effect or the level left; settings: time 90 min, 1.5 h
# Callithrix jacchus [11] = experiment: Antimigraine activity in human CGRPalpha-induced migraine marmoset model assessed as reduction in facial blood flow at 5 mg/kg, sc administered 30 mins after CGRPalpha stimulation measured after 15 mins by laser doppler method relative to control; format: functional; design: scale not given: the % may be the effect or the level left; settings: time 45 min, 0.75 h
# T1 sequence (Q16602 whole entry, one chain of several): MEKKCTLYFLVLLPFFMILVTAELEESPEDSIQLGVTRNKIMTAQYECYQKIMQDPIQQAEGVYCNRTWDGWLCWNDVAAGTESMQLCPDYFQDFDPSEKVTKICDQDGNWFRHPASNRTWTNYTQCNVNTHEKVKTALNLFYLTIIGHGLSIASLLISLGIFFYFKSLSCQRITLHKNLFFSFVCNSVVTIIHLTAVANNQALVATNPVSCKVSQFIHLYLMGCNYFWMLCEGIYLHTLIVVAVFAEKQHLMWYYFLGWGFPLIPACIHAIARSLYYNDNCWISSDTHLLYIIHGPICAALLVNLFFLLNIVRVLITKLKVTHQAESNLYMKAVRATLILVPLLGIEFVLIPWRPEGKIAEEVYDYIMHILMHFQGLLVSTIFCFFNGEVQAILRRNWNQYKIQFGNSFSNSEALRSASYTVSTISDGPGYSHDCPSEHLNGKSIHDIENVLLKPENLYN
SMILES,Ki [1],bioavailability [2],also measured
O=C(N[C@@H]1Cc2ccc3[nH]ncc3c2CN(Cc2ccccc2)C1=O)N1CCC(N2Cc3ccccc3NC2=O)CC1,12 nM,–,–
O=C(C[C@@H]1Cc2cc(Cl)c3[nH]ncc3c2CN(CC(F)(F)F)C1=O)N1CCC(n2c(=O)[nH]c3ccccc32)CC1,3.3 nM,–,–
CN(C)CCN1Cc2c(ccc3[nH]ncc23)C[C@@H](NC(=O)N2CCC(N3Cc4ccccc4NC3=O)CC2)C1=O,170 nM,–,–
CC(C)(C)CN1Cc2c(cc(Cl)c3[nH]ncc23)C[C@@H](CC(=O)N2CCC(N3Cc4ccccc4NC3=O)CC2)C1=O,0.41 nM,1.8%,–
CC(C)(C)CN1Cc2c(cc(Cl)c3[nH]ncc23)C[C@@H](NC(=O)N2CCC(N3Cc4ccccc4NC3=O)CC2)C1=O,1.5 nM,–,–
O=C(N[C@@H]1Cc2ccc3[nH]ncc3c2CN(C2CCNCC2)C1=O)N1CCC(N2Cc3ccccc3NC2=O)CC1,290 nM,–,–
O=C(N[C@@H]1Cc2ccc3[nH]ncc3c2CN(CCN2CCOCC2)C1=O)N1CCC(N2Cc3ccccc3NC2=O)CC1,50 nM,–,–
CC(C)(C)CN1Cc2c(cc(Cl)c3[nH]ncc23)C[C@@H](CC(=O)N2CCC(N3Cc4cccc(F)c4NC3=O)CC2)C1=O,0.31 nM,4.7%,–
O=C(N[C@@H]1Cc2ccc3[nH]ncc3c2CN(CCc2ccncc2)C1=O)N1CCC(N2Cc3ccccc3NC2=O)CC1,7.1 nM,–,–
CC(C)(C)CN1Cc2c(cc(Cl)c3[nH]ncc23)C[C@@H](CC(=O)N2CCC(c3cc4ccccc4[nH]c3=O)CC2)C1=O,0.75 nM,4.5%,–
O=C(C[C@@H]1Cc2cc(Cl)c3[nH]ncc3c2CN(CC(F)(F)F)C1=O)N1CCC(c2cc3cccc(F)c3[nH]c2=O)CC1,6 nM,–,–
O=C(N[C@@H]1Cc2cc(Cl)c3[nH]ncc3c2CN(Cc2ccccc2)C1=O)N1CCC(N2Cc3ccccc3NC2=O)CC1,1 nM,–,–
O=C(C[C@@H]1Cc2cc(Cl)c3[nH]ncc3c2CN(CC(F)(F)F)C1=O)N1CCC(N2CCc3cccc(F)c3NC2=O)CC1,9.2 nM,–,–
CC(C)(C)CN1Cc2c(ccc3[nH]ncc23)C[C@@H](NC(=O)N2CCC(N3Cc4ccccc4NC3=O)CC2)C1=O,4.9 nM,–,–
O=C(C[C@@H]1Cc2cc(Cl)c3[nH]ncc3c2CN(CC(F)(F)F)C1=O)N1CCC(c2cc3ccccc3[nH]c2=O)CC1,0.54 nM,3.4%,–
CN1Cc2c(ccc3[nH]ncc23)C[C@@H](NC(=O)N2CCC(N3Cc4ccccc4NC3=O)CC2)C1=O,370 nM,–,–
O=C(C[C@@H]1Cc2cc(Cl)c3[nH]ncc3c2CN(CC(F)(F)F)C1=O)N1CCC(n2c(=O)[nH]c3ncccc32)CC1,0.09 nM,5.5%,–
CC(C)(C)CN1Cc2c(cc(Cl)c3[nH]ncc23)C[C@@H](CC(=O)N2CCC(c3cc4cccc(F)c4[nH]c3=O)CC2)C1=O,6 nM,12%,–
O=C(C[C@@H]1Cc2cc(Cl)c3[nH]ncc3c2CN(CC(F)(F)F)C1=O)N1CCC(N2Cc3ccccc3NC2=O)CC1,0.23 nM,–,–
CC(C)CN1Cc2c(ccc3[nH]ncc23)C[C@@H](NC(=O)N2CCC(N3Cc4ccccc4NC3=O)CC2)C1=O,14 nM,–,–
CC(C)N1Cc2c(ccc3[nH]ncc23)C[C@@H](NC(=O)N2CCC(N3Cc4ccccc4NC3=O)CC2)C1=O,59 nM,–,–
O=C(N[C@@H]1Cc2ccc3[nH]ncc3c2CN(Cc2ccncc2)C1=O)N1CCC(N2Cc3ccccc3NC2=O)CC1,22 nM,–,–
O=C(C[C@@H]1Cc2cc(Cl)c3[nH]ncc3c2CN(CC(F)(F)F)C1=O)N1CCC(N2CCc3ccccc3NC2=O)CC1,0.1 nM,17%,Activity (Callithrix jacchus [3]): 47%; fraction unbound [4]: 0.028; IC50 [5]: 0.27 nM; half-life [6]: 3.1 min; half-life [7]: 3.6 min; half-life [8]: 2.4 min; half-life [9]: 2.2 min; Activity (Callithrix jacchus [10]): 41%; Activity (Callithrix jacchus [11]): 27%
